According to patent US20260042764A1, “COMPOSITIONS AND METHODS FOR INHIBITION OF KRAS” (TheRas, Inc., priority 2022, published 2026):

Key:
[1] = biological target: T1, Avi-KRAS G12V (1-169) GppNHp/RAF1 RBD-3xFLAG (52-151) (Homo sapiens, UniProt P01116, G12V); assay: Raf1-KRAS G12V-GppNHP disruption HTRF assay (Biological Example 1); assay type: binding
T1 construct: Avi-KRAS G12V (1-169)
In short: (§1)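 Using HTRF, the loss of KRAS–effector RAF1 complex was quantified in 50 mM Tris pH 7.5 buffer with 100 mM NaCl and 0.1% BSA. The protein step and reagent step ran 1 h each at room temperature. Activity normalized with DMSO taken as 100%.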

[2] = biological target: T2, Avi-KRAS G12D (1-169) GppNHp/RAF1 RBD-3xFLAG (52-151) (Homo sapiens, UniProt P01116, G12D); assay: Raf1-KRAS G12D-GppNHP disruption HTRF assay (Biological Example 1); assay type: binding
T2 construct: Avi-KRAS G12D (1-169)
In short: as §1

[3] = tested on: SW620 cells (KRAS G12V); assay: Cell-based pERK HTRF assay in SW620 cell (Biological Example 4); conditions: pERK HTRF
In short: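 Read-out: HTRF pERK signal (excitation 320 nm, emission 615 nm) from lysates of SW620 cells after 4 h compound exposure. Dose range was 9 points, half-log steps from 1 μM, in 0.25% DMSO; antibody incubation ran 4–24 h at room temperature.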

[4] = biological target: T3, Avi-KRAS G12R (1-169) GppNHp/RAF1 RBD-3xFLAG (52-151) (Homo sapiens, UniProt P01116, G12R); assay: Raf1-KRAS G12R-GppNHP disruption HTRF assay (Biological Example 1); assay type: binding
T3 construct: Avi-KRAS G12R (1-169)
In short: as §1

[5] = tested on: GP2d cells (KRAS G12D); assay: Cell-based pERK HTRF assay in GP2d cell (Biological Example 2); conditions: GP2d (KRAS G12D) cells, pERK HTRF
In short: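 Phospho-ERK is measured by HTRF following a 60 min compound exposure at 0.25% DMSO, with a 9-point half-log curve topping at 1 μM or 100 nM.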

[6] = biological target: T4, Avi-KRAS WT (1-169) GppNHp/RAF1 RBD-3xFLAG (52-151) (Homo sapiens, UniProt P01116); assay: Raf1-KRAS WT-GppNHP disruption HTRF assay (Biological Example 1); assay type: binding
T4 construct: Avi-KRAS WT (1-169)
In short: as §1

[7] = KRAS G12V, GppNHp-loaded, class symbols
[8] = KRAS G12D, GppNHp-loaded, class symbols
[9] = Homo sapiens, SW-620, SW620 (KRAS G12V) cells, class symbols
[10] = KRAS G12R, GppNHp-loaded, class symbols
[11] = KRAS WT, GppNHp-loaded, class symbols
[12] = Homo sapiens, SW-620, SW620 (KRAS G12V) cells
[13] = KRAS G12V, GppNHp-loaded, Table 11
[14] = KRAS G12D, GppNHp-loaded, Table 11
[15] = KRAS G12R, GppNHp-loaded, Table 11
[16] = KRAS WT, GppNHp-loaded, Table 11

T2 sequence (P01116 1-169 isoform P01116-2 G12D): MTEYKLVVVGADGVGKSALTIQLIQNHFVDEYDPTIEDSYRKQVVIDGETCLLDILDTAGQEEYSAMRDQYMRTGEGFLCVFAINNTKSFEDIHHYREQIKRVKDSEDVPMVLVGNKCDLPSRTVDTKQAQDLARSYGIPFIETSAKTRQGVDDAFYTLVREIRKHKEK
T3 sequence (P01116 1-169 isoform P01116-2 G12R): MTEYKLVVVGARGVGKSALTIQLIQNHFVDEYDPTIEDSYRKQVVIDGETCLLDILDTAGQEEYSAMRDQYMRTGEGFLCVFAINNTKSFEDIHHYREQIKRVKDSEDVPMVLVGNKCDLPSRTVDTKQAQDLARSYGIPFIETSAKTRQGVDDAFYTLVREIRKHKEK
T1 sequence (P01116 1-169 isoform P01116-2 G12V): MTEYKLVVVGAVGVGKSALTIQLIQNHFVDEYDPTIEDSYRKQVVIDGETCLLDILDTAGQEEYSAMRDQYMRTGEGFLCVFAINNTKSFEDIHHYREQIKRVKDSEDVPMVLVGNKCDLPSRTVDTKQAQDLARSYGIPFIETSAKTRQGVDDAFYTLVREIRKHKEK
T4 sequence (P01116 1-169 isoform P01116-2): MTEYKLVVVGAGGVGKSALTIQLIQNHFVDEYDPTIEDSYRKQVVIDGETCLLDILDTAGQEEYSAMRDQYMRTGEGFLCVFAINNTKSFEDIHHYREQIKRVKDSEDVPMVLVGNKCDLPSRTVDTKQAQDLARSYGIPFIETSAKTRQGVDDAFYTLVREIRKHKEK

SMILES	IC50 [1, 7] [nM]	IC50 [2, 8] [nM]	IC50 [3, 9] [nM]	IC50 [4, 10] [nM]	IC50 ([5]; GP2d, class symbols) [nM]	IC50 [6, 11] [nM]	IC50 ([1]; KRAS G12V-GppNHp/RAF1 RBD HTRF) [nM]	IC50 ([2]; KRAS G12D-GppNHp/RAF1 RBD HTRF) [nM]	IC50 [3, 12] [nM]	IC50 ([4]; KRAS G12R-GppNHp/RAF1 RBD HTRF) [nM]	IC50 ([5]; GP2d) [nM]	IC50 ([6]; KRAS WT-GppNHp/RAF1 RBD HTRF) [nM]	further results
CCN(c1nc(OC[C@@]23CCCN2C[C@H](F)C3)nc2c(F)c(-c3ccc(F)c4sc(N)c(C#N)c34)c(C(F)(F)F)cc12)[C@H]1CCN(C(=O)[C@H](C)OC)C1 (atropisomer, axis not shown) [Compound 571]	< 100	< 100	< 100	< 100	< 100	< 100	–	–	–	–	–	–	–
C[C@@H]1[C@H](N(C)c2nc(OC[C@@]34CCCN3C[C@H](F)C4)nc3c(F)c(-c4ccc(F)c5sc(N)c(C#N)c45)c(Cl)cc23)CCN1C(=O)C(C)(C)F [Compound 421]	–	–	–	–	–	–	1000 to 10000	1000 to 10000	100 to 1000	1000 to 10000	100 to 1000	1000 to 10000	–
N#Cc1c(N)sc2c(F)ccc(-c3c(C(F)(F)F)cc4c(N5CCn6nccc6C5)nc(OC[C@@]56CCCN5C[C@H](F)C6)nc4c3F)c12 [Compound 233]	–	–	–	–	–	–	–	–	–	–	–	–	IC50 [1, 13]: 1000 to 10000 nM; IC50 [2, 14]: 100 to 1000 nM; IC50 ([3]; SW620 (KRAS G12V) cells): < 100 nM; IC50 [4, 15]: 100 to 1000 nM; IC50 [5]: < 100 nM; IC50 [6, 16]: 100 to 1000 nM
N#Cc1c(N)sc2c(F)ccc(-c3c(C(F)(F)F)cc4c(N5C6COCC5C6)nc(OC[C@@]56CCCN5C[C@H](F)C6)nc4c3F)c12 [Compound 202]	–	–	–	–	–	–	–	–	< 100	–	< 100	–	IC50 [1, 13]: 100 to 1000 nM; IC50 [2, 14]: 100 to 1000 nM; IC50 [4, 15]: 100 to 1000 nM; IC50 [6, 16]: 100 to 1000 nM
Cn1ncc2c1CN(c1nc(OC[C@@]34CCCN3C[C@H](F)C4)nc3c(F)c(-c4ccc(F)c5sc(N)c(C#N)c45)c(C(F)(F)F)cc13)CC2 [Compound 352]	–	–	–	–	–	–	> 10000	1000 to 10000	< 100	> 10000	100 to 1000	> 10000	–
COC[C@H]1CCN1c1nc(OC[C@@]23CCCN2C[C@H](F)C3)nc2c(F)c(-c3ccc(F)c4sc(N)c(C#N)c34)c(C(F)(F)F)cc12 [Compound 270]	–	–	–	–	–	–	–	–	100 to 1000	–	100 to 1000	–	IC50 [1, 13]: 100 to 1000 nM; IC50 [2, 14]: 100 to 1000 nM; IC50 [4, 15]: 100 to 1000 nM; IC50 [6, 16]: 100 to 1000 nM
CN(c1nc(OC[C@@]23CCCN2C[C@H](F)C3)nc2c(F)c(-c3ccc(F)c4sc(N)c(C#N)c34)c(C(F)(F)F)cc12)[C@H]1CC[C@@H](O)C1 [Compound 309]	–	–	–	–	–	–	100 to 1000	100 to 1000	< 100	100 to 1000	< 100	100 to 1000	–
CN(c1nc(OC[C@@]23CCCN2C[C@H](F)C3)nc2c(F)c(-c3ccc(F)c4sc(N)c(C#N)c34)c(C(F)(F)F)cc12)C1CCCS(=O)(=O)C1 (stereo partly drawn) [Compound 341]	–	–	–	–	–	–	1000 to 10000	100 to 1000	100 to 1000	100 to 1000	< 100	100 to 1000	–

Now from value to compound, other results behind:

IC50 [1, 7] [nM]	IC50 [2, 8] [nM]	IC50 [3, 9] [nM]	IC50 [4, 10] [nM]	IC50 ([5]; GP2d, class symbols) [nM]	IC50 [6, 11] [nM]	IC50 ([1]; KRAS G12V-GppNHp/RAF1 RBD HTRF) [nM]	IC50 ([2]; KRAS G12D-GppNHp/RAF1 RBD HTRF) [nM]	IC50 [3, 12] [nM]	IC50 ([4]; KRAS G12R-GppNHp/RAF1 RBD HTRF) [nM]	IC50 ([5]; GP2d) [nM]	IC50 ([6]; KRAS WT-GppNHp/RAF1 RBD HTRF) [nM]	SMILES	further results
< 100	< 100	< 100	< 100	< 100	< 100	–	–	–	–	–	–	CC#CC(=O)N1CC[C@H](N(CC)c2nc(OC[C@@]34CCCN3C[C@H](F)C4)nc3c(F)c(-c4ccc(F)c5sc(N)c(C#N)c45)c(C(F)(F)F)cc23)C1 (atropisomer, axis not shown) [Compound 679]	–
100 to 1000	100 to 1000	< 100	100 to 1000	< 100	1000 to 10000	–	–	–	–	–	–	Cc1c(C(=O)N2CCC2)nn2c1CN(c1nc(OCC34CCCN3CC(F)C4)nc3c(F)c(-c4ccc(F)c5sc(N)c(C#N)c45)c(C(F)(F)F)cc13)CC2 (stereo not drawn) [Compound 742]	–
100 to 1000	< 100	< 100	< 100	< 100	< 100	–	–	–	–	–	–	CCN(c1nc(OC[C@@]23CCCN2C[C@H](F)C3)nc2c(F)c(-c3ccc(F)c4sc(N)c(C#N)c34)c(C(F)(F)F)cc12)[C@H]1C[C@H](C)N(C(=O)[C@H](C)OC)C1 (atropisomer, axis not shown) [Compound 739]	–
< 100	< 100	< 100	< 100	< 100	< 100	–	–	–	–	–	–	CCN(c1nc(OC[C@@]23CCCN2C[C@H](F)C3)nc2c(F)c(-c3ccc(F)c4sc(N)c(C#N)c34)c(C(F)(F)F)cc12)[C@H]1CCN(C(=O)[C@@H]2CCCCO2)C1 (atropisomer, axis not shown) [Compound 769]	–
